Measured values published in patent US8580773B2, “Small-molecule inhibitors of the androgen receptor” (The Regents of the University of California, priority 2008, dated 2013).
Structures can show the parent of a compound that is named as a salt.

What was measured:
[1] = test system: LAPC4 cells; test: Cell proliferation (DNA content, DAPI) in LAPC4 cells; type: cell-based, human; conditions: 3 nM DHT, PP 100 nM, HH 100 nM, BiC 1 μM, seven days
From the text: (§1) LN-AR cells were created by retroviral infection of a high-expressing AR vector into LNCaP cells, and proliferate independent of androgen in cell culture, unlike their parental line (Chen, C. D., et al., Molecular determinants of resistance to antiandrogen therapy. Nat Med, 2004. 10(1): p. 33-9). HEK293 cells were used as a control. Cells were transferred to charcoal-stripped media two days before they were split and plated in quadruplicate at a density of approximately 20,000 cells/well in 48-well plates. […] Media were changed every day, using a single preparation to ensure consistent compound concentrations. Proliferation was determined by measuring the DNA content of the cells in each well. Each day, the cells in four wells were fixed in 100% cold methanol, followed by staining for 5 min at RT with 0.2 ng/mL 4′,6-diamidino-2-phenylindole (DAPI) in PBS. The cells were washed once in PBS, then read on a fluorescence plate reader using 365/439 excitation/emission wavelengths. LAPC4 and LNCaP cells proliferated to a much greater degree in the presence of DHT, while LN-AR cells proliferated in the presence and absence of DHT.

[2] = test system: HEK293 cells; test: Cell proliferation (DNA content, DAPI) in control HEK293 cells; type: cell-based; conditions: PP 100 nM, HH 100 nM, BiC 1 μM
From the text: as §1

[3] = Pharmacokinetics in mice, drug levels by mass spectrometry; type: in vivo
From the text: Serum samples were obtained at fixed time intervals, and the drug levels determined by mass spectrometry.

## Cc1nccc2c1[nH]c1cc(O)ccc12 [HH, harmol hydrochloride]
[1]
  Inhibition of cell growth: not effective
[2]
  Non-specific growth inhibition: Neither compound exhibited non-specific growth inhibition
[3]; mice, single IP injection 5 mg/kg, 1 hr
  Plasma concentration: 5.0 ng/mL
[3]; wild-type FVB mice, single intraperitoneal injection
  Clearance / half-life (in words): rapidly cleared
